Experimental findings from US20060172357A1, “Detecting human antibodies in non-human serum” (Genentech, priority 2004, published 2006) are described below.

Where two headings read alike, the source gives them in different places. The star is where a group is joined. Biotin = O=C1N[C@H]2[C@H](CS[C@H]2CCCCC(=O)*)N1

The target of assay [1] is rhuMAb2H7. Conditions: apparent affinity; Method 2; peptide immobilized on streptavidin chip, 2H7-IgG injected, bivalent analyte model. The method, then:
In the second method, affinities were measured with a Biacore 3000 on a strepavidin chip using either immobilized CD20-35 mer, bis(biotin)) at 685 RU, CD20(51-mer, mono(biotin)) at 1637 RU, or CD20(51-mer, bis(biotin)) at 1037 RU.
PBS/Tween/azide was used as the running buffer, at 20 μL/minute, with 20 mM HCl for regeneration. 2H7-IgG was injected, and the resulting data was fit to a bivalent analyte model.

In assay [2] the target is rhuMAb2H7. Conditions: apparent equilibrium dissociation constant; Method 1; peptide immobilized on streptavidin chip, 2H7-IgG injected. The method, then: In the first method, affinities were measured with a Biacore 3000 on a strepavidin chip using either immobilized mono-biotinylated CD20-35 mer at 95 RU, or mono-biotinylated CD20-51 mer at 94 RU, where RU is a relative surface plasmon resonance unit based upon an arbitrary scale. The running buffer was HBS-EP flowing at 50 μL/min with 25 μl of 10 mM Glycine-HCl, and a pH of 2.5 for the regeneration. 2H7-IgG was injected, and the resulting data was fit to a 1:1 binding model with Biaevaluation 3.0 software (Biacore AB, Uppsala, Sweden) to get the apparent equilibrium dissociation constants.

For assay [3], the target named is T1, CD20 full Length (Homo sapiens, UniProt P11836).
T1 construct: MKHQHQQ leader (N); octa-His (C); made in house; host or cells: E. coli
T1 sequence (P11836 1-297): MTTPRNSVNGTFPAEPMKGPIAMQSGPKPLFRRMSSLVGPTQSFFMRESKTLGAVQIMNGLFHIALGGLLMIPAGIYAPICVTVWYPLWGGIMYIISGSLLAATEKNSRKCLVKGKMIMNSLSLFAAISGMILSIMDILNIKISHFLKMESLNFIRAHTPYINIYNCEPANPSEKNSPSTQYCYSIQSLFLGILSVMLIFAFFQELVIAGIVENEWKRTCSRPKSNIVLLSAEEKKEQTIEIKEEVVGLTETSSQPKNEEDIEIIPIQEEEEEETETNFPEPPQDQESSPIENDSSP
Nature of the assay: ELISA using full-length CD20 molecule as the capture reagent. It is filed as binding. Conditions: N 8. As for the experimental part:
[…] The plate was then washed for 3 times with the washing buffer (PBS with 0.05% polysorbate-20). Blocking buffer (200 μl) was added and the plate was sealed and incubated at room temperature for 2 hours with a gentle agitation. […] After incubating at room temperature for another hour with a gentle agitation, the plate was washed again with the washing buffer for six times and blotted dry. A volume of 100 μl of the detection agent diluted with the detection agent diluent was added and the plate was sealed and incubated at room temperature for one hour with a gentle agitation. The plate was then washed for another six times and blotted dry before the addition of 100 μl of an equal volume of TMB and H2O2. After incubating at room temperature for 15 minutes without agitation, the reaction was stopped by adding another 100 μl of 1 M H3PO4. The absorbance at 450 nm subtracted of that at 650 nm was read from the Spectra Max250 plate reader (Molecular Devices Corporation, Sunnyvale, Calif.), and the data were processed using SoftmaxPro (Molecular Devices Corporation, Sunnyvale, Calif.).
Background: ELISA stands for enzyme-linked immunosorbent assay.

For the substance “Biotin GKISHFLKMESLNFIRAHTPYINIYNCEPANPSEKNSPSTQYCYSIQSGGK (Biotin)-amide [Bis-CD20-51mer]”, the Kd in assay [1] was found to be 110 nM. Same read-out and setting: then “Biotin-FIRAHTPYINIYNCEPANPSEKNSPSTQYCYSGGK(Biotin)-NH2 (cysteine pairing not given here) [Bis-CD20-35mer]”, with 500 nM. Consider “Biotin-FIRAHTPYINIYNCEPANPSEKNSPSTQYCYSGGK-NH2 (cysteine pairing not given here) [Mono-CD20-35mer]”, for which the Kd in assay [2] amounted to 41700 nM. “Biotin-GKISHFLKMESLNFIRAHTPYINIYNCEPANPSEKNSPSTQYCYSIQSGGK-NH2 (cysteine pairing not given here) [Mono-CD20-51 mer]”: the Kd in assay [2] is 47 nM; in assay [1], 130 nM. Consider “Rituxan: anti-CD20 antibody, generated as disclosed in U.S. Pat. No 5,736,137”, for which the “signal of 247 ng/ml of antibody” value in assay [3] (capture reagent 1 μg/mL in PBS, detection Goat anti-hu F(ab′)2 HRP) is reported as 0.065 O.D.450 nm; in assay [3] (capture reagent 1 μg/mL in PBS, detection Sheep anti-hu IgG HRP (Monkey Adsorbed)), 0.012 O.D.450 nm; in assay [3] (capture reagent 5 μg/mL in PBS, detection Goat anti-hu F(ab′)2 HRP), 0.166 O.D.450 nm; in assay [3] (capture reagent 5 μg/mL in PBS, detection Sheep anti-hu IgG HRP (Monkey Adsorbed)), 0.023 O.D.450 nm.
